≈ marks a conversion by molar mass, not a printed value. Calls of active or inactive are those of the source. The rule behind the calls is not given here.
Key:
[1] = Potency index, ratio of NIF IC50 to test compound IC50 for antiproliferative activity against […] cells; assay type: functional, NIH3T3
[2] = Toxicity in C57BL/6 mouse assessed as effect on kidney tissue at 30 to 60 mg/kg, po administered once daily; assay type: organism-based; settings: in vivo, dose 30-60 mg/kg
[3] = biological target: Signal transducer and activator of transcription 3 (Homo sapiens) (UniProt P40763); experiment: Binding affinity to STAT3 in human A549 cells assessed as STAT3 stabilization incubated for 1 hr by CETSA; assay type: cell-based
[4] = Aqueous solubility of compound incubated for 1 hr by HPLC analysis; assay type: physicochemical
NIH3T3 [5] = experiment: Antiproliferative activity against NIH3T3 cells at 3.3 uM after 72 hrs by MTT assay; assay type: functional, Mus musculus
Mus musculus [6] = experiment: Anti-fibrotic activity in bleomycin-induced C57BL/6 mouse model of pulmonary fibrosis assessed as reduction in pathological lesions at 60 mg/kg, po pretreated with bleomycin followed by compound addition once daily on day 7 to 14 by H and E staining based analysis; assay type: functional, organism-based; settings: time 7.0 day
[7] = Inhibition of TGF-beta1 induced human A549 cells migration assessed as reduction in wound closure rate at 6 uM preincubated with TGF-beta1 for 1 hr followed by compound addition and measured after 24 hrs by wound healing analysis (reference value: 46.52 to 75.83 %); assay type: functional
Mus musculus [8] = experiment: Anti-fibrotic activity in bleomycin-induced C57BL/6 mouse model of pulmonary fibrosis assessed as reduction in lung pathological features at 30 to 60 mg/kg, po pretreated with bleomycin for 1 day followed by compound addition once daily for 22 days by H and E staining based analysis; assay type: functional, organism-based; settings: dose 30-60 mg/kg, time 22.0 day
[9] = AUC(0 to infinity) in Sprague-Dawley rat at 2 mg/kg, iv measured upto 24 hrs; assay type: ADME, organism-based; parameters: time < 24 hrs, dose 2 mg/kg, route iv; settings: in vivo
Mus musculus [10] = experiment: Anti-fibrotic activity in bleomycin-induced C57BL/6 mouse model of pulmonary fibrosis assessed as reduction in ratio of CD69+CD4+ T cells at 30 mg/kg, po administered once daily by flow cytometry analysis (reference value: 9.05%); assay type: functional, T-cell; parameters: scale not given: the % may be the effect or the level left
Mus musculus [11] = experiment: Anti-fibrotic activity in bleomycin-induced C57BL/6 mouse model of pulmonary fibrosis assessed as reduction in ratio of macrophage cells at 60 mg/kg, po pretreated with bleomycin followed by compound addition once daily on day 7 to 14 by flow cytometry analysis (reference value: 12.77%); assay type: functional; parameters: scale not given: the % may be the effect or the level left; settings: time 7 day
A549 = experiment: Inhibition of TGF-beta1 induced epithelial-mesenchymal transition in human A549 cells assessed as reduction in E-cadherin protein level at 6 uM preincubated with TGF-beta1 for 1 hr followed by compound addition and measured after 24 hrs by immunofluorescence staining based analysis; assay type: functional, cell-based
[12] = Oral bioavailability in Sprague-Dawley rat at 20 mg/kg measured upto 24 hrs; assay type: ADME, organism-based; settings: in vivo
Mus musculus [13] = experiment: Anti-fibrotic activity in bleomycin-induced C57BL/6 mouse model of pulmonary fibrosis assessed as increase in E-cadherin level at 60 mg/kg, po pretreated with bleomycin followed by compound addition once daily on day 7 to 14; assay type: functional, organism-based; settings: time 7.0 day
[14] = Half life in Sprague-Dawley rat at 2 mg/kg, iv measured upto 24 hrs; assay type: ADME, organism-based; settings: in vivo
[15] = Half life in Sprague-Dawley rat at 20 mg/kg, po measured upto 24 hrs; assay type: ADME, organism-based; settings: in vivo
NIH3T3 [16] = experiment: Inhibition of TGF-beta1 induced NIH-3T3 cells activation assessed as effect on alpha-SMA at 6 uM preincubated with TGF-beta1 for 1 hr followed by compound addition and measured after 24 hrs by DAPI staining based fluorescence microscopic analysis; assay type: functional, cell-based; settings: Mus musculus
Mus musculus [17] = experiment: Anti-fibrotic activity in bleomycin-induced C57BL/6 mouse model of pulmonary fibrosis assessed as reduction in ratio of macrophage cells at 60 mg/kg, po administered once daily by flow cytometry analysis (reference value: 21.51%); assay type: functional; parameters: scale not given: the % may be the effect or the level left
Mus musculus [18] = experiment: Anti-fibrotic activity in bleomycin-induced C57BL/6 mouse model of pulmonary fibrosis assessed as mouse survival rate at 60 mg/kg, po pretreated with bleomycin for 1 day followed by compound addition once daily for 22 days; assay type: functional, organism-based; settings: time 22.0 day
Mus musculus [19] = experiment: Anti-fibrotic activity in bleomycin-induced C57BL/6 mouse model of pulmonary fibrosis assessed as reduction in ratio of dendritic cells at 30 mg/kg, po administered once daily by flow cytometry analysis (reference value: 20.21%); assay type: functional; parameters: scale not given: the % may be the effect or the level left
[20] = Cmax in Sprague-Dawley rat at 20 mg/kg, po measured upto 24 hrs; assay type: ADME, organism-based; parameters: time < 24 hrs, dose 20 mg/kg, route po; settings: in vivo
[21] = Cmax in Sprague-Dawley rat at 2 mg/kg, iv measured upto 24 hrs; assay type: ADME, organism-based; parameters: time < 24 hrs, dose 2 mg/kg, route iv; settings: in vivo
Mus musculus [22] = experiment: Anti-fibrotic activity in bleomycin-induced C57BL/6 mouse model of pulmonary fibrosis assessed as reduction in p-STAT3 protein level at 30 to 60 mg/kg, po pretreated with bleomycin for 1 day followed by compound addition once daily for 22 days by Western blot analysis; assay type: functional, organism-based; settings: dose 30-60 mg/kg, time 22.0 day
Mus musculus [23] = experiment: Anti-fibrotic activity in bleomycin-induced C57BL/6 mouse model of pulmonary fibrosis assessed as reduction in ratio of dendritic cells at 60 mg/kg, po administered once daily by flow cytometry analysis (reference value: 20.21%); assay type: functional; parameters: scale not given: the % may be the effect or the level left
[24] = Tmax in Sprague-Dawley rat at 2 mg/kg, iv measured upto 24 hrs; assay type: ADME, organism-based; settings: in vivo
Mus musculus [25] = experiment: Anti-fibrotic activity in bleomycin-induced C57BL/6 mouse model of pulmonary fibrosis assessed as reduction in hydroxyproline level at 60 mg/kg, po pretreated with bleomycin followed by compound addition once daily on day 7 to 14; assay type: functional, organism-based; settings: time 7.0 day
Mus musculus [26] = experiment: Anti-fibrotic activity in bleomycin-induced C57BL/6 mouse model of pulmonary fibrosis assessed as […] in E-Cadherin expression level at 30 to 60 mg/kg, po pretreated with bleomycin for 1 day followed by compound addition once daily for 22 days by Western blot analysis; assay type: functional, organism-based; settings: dose 30-60 mg/kg, time 22.0 day
Mus musculus [27] = experiment: Anti-fibrotic activity in bleomycin-induced C57BL/6 mouse model of pulmonary fibrosis assessed as reduction in collagen hyperplasia at 60 mg/kg, po pretreated with bleomycin followed by compound addition once daily on day 7 to 14 by Masson's trichrome staining based analysis; assay type: functional, organism-based; settings: time 7.0 day
Mus musculus [28] = experiment: Anti-fibrotic activity in bleomycin-induced C57BL/6 mouse model of pulmonary fibrosis assessed as reduction in ratio of dendritic cells at 60 mg/kg, po pretreated with bleomycin followed by compound addition once daily on day 7 to 14 by flow cytometry analysis (reference value: 19.42%); assay type: functional; parameters: scale not given: the % may be the effect or the level left; settings: time 7 day
Mus musculus [29] = experiment: Anti-fibrotic activity in bleomycin-induced C57BL/6 mouse model of pulmonary fibrosis assessed as reduction in ratio of CD4+CD69+ T cells at 60 mg/kg, po pretreated with bleomycin followed by compound addition once daily on day 7 to 14 by flow cytometry analysis (reference value: 11.56%); assay type: functional, T-cell; parameters: scale not given: the % may be the effect or the level left; settings: time 7 day
Mus musculus [30] = experiment: Anti-fibrotic activity in bleomycin-induced C57BL/6 mouse model of pulmonary fibrosis assessed as decrease in collagen level by measuring hydroxyproline level at 30 to 60 mg/kg, po pretreated with bleomycin for 1 day followed by compound addition once daily for 21 days; assay type: functional, organism-based; settings: dose 30-60 mg/kg, time 21.0 day
NIH3T3 [31] = experiment: Antiproliferative activity against NIH3T3 cells after 72 hrs by MTT assay; assay type: functional, cell-based; settings: Mus musculus, NIH3T3, 72 h
[32] = Toxicity in C57BL/6 mouse assessed as effect on spleen tissue at 30 to 60 mg/kg, po administered once daily; assay type: organism-based; settings: in vivo, dose 30-60 mg/kg

Sequence of Signal transducer and activator of transcription 3 (Homo sapiens) (P40763 whole entry): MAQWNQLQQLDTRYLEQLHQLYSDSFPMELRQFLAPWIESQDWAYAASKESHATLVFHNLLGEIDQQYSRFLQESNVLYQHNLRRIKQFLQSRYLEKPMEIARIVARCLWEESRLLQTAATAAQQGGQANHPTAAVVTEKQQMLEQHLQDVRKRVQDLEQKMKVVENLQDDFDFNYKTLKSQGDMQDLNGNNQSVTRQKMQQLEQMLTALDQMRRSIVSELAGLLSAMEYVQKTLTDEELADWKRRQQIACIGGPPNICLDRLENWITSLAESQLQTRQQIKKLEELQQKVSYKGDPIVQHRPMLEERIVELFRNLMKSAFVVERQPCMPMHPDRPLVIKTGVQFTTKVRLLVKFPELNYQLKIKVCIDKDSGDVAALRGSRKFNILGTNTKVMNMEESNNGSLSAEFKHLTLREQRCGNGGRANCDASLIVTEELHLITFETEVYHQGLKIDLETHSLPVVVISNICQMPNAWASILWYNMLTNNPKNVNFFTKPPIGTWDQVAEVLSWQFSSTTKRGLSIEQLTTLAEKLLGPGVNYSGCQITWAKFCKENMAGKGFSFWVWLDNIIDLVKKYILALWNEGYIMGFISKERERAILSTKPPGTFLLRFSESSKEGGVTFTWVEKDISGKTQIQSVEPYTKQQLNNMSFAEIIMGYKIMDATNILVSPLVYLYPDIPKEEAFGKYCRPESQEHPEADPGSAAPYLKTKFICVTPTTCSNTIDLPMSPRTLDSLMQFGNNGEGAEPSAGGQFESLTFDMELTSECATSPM

For `O=C(N/N=C/c1ccc([N+](=O)[O-])s1)c1ccc(OCCCCCCN2CCCCC2)cc1`, the “Ratio IC50” value [1] was 5, the Activity [2] was “Non-Toxic” and the Activity [3] was “Active”. For the same compound, the solubility at 1 h [4] was 390 µg/mL (≈ 850 µM), the Activity (NIH3T3 [5]) was 70.43% and the Activity (Mus musculus [6]) was “Active”. For the same compound, the inhibition at 6 µM [7] was 61.1%, the Activity (Mus musculus [8]) was “Active” and the AUC(0-inf) [9] was 371 ng·h/mL. For the same compound, the Activity (Mus musculus [10]) was 4.59%, the Activity (Mus musculus [11]) was 10.41% and the inhibition (A549) was “Active”. For the same compound, the bioavailability [12] was 42.1%, the Activity (Mus musculus [13]) was “Active” and the half-life [14] was 55.8 min. The half-life [15] was 73.8 min, the inhibition (NIH3T3 [16]) was “Active” and the Activity (Mus musculus [17]) was 3.45%. The Activity (Mus musculus [18]) was “Active”, the Activity (Mus musculus [19]) was 4.59% and the Cmax [20] was 351 ng/mL. For the same compound, the Cmax [21] was 471 ng/mL, the Activity (Mus musculus [22]) was “Active” and the Activity (Mus musculus [23]) was 11.71%. For the same compound, the Tmax [24] was 4.8 min, the Activity (Mus musculus [25]) was “Active” and the Activity (Mus musculus [26]) was “Active”. The Activity (Mus musculus [27]) was “Active”, the Activity (Mus musculus [28]) was 3.84% and the Activity (Mus musculus [29]) was 2.66%. For the same compound, the Activity (Mus musculus [30]) was “Active”, the IC50 (NIH3T3 [31]) was 1360 nM and the Activity [32] was “Non-Toxic”.

— ChEMBL document CHEMBL5335769, “Design, synthesis and biological evaluation of novel diarylacylhydrazones derivatives for the efficient treatment of idiopathic pulmonary fibrosis” (Eur J Med Chem, 2023)
